The supplement of paper PMC10307832

What was measured:
Assay in all cases: relative viability (nuclei count vs DMSO), 5 days (fraction); higher = more cells survive
Seliciclib + Pemetrexed = compound: CC[C@H](CO)Nc1nc(NCc2ccccc2)c2ncn(C(C)C)c2n1 [Seliciclib] + Nc1nc2[nH]cc(CCc3ccc(C(=O)N[C@@H](CCC(=O)O)C(=O)O)cc3)c2c(=O)[nH]1 [Pemetrexed] (partner 0.2 µM)
How it was run: (§1)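 Dosing by pin tool came one day after lung cancer cell lines were seeded in 1536-well plates, using either one drug or a fixed anchor-drug dose plus five library-drug doses (not always all listed) in √10 steps. After 5 days, nuclei were counted on 4× images. Relative viability is treated-well nuclei count divided by vehicle-well nuclei count, and values are medians of duplicate plates.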

Seliciclib + Bortezomib = compound: CC[C@H](CO)Nc1nc(NCc2ccccc2)c2ncn(C(C)C)c2n1 [Seliciclib] + CC(C)C[C@H](NC(=O)[C@H](Cc1ccccc1)NC(=O)c1cnccn1)B(O)O [Bortezomib] (partner 0.002 µM)
How it was run: as §1

Seliciclib + Olaparib = compound: CC[C@H](CO)Nc1nc(NCc2ccccc2)c2ncn(C(C)C)c2n1 [Seliciclib] + O=C(c1cc(Cc2n[nH]c(=O)c3ccccc23)ccc1F)N1CCN(C(=O)C2CC2)CC1 [Olaparib] (partner 8 µM)
How it was run: as §1

Seliciclib + Alpelisib = compound: CC[C@H](CO)Nc1nc(NCc2ccccc2)c2ncn(C(C)C)c2n1 [Seliciclib] + Cc1nc(NC(=O)N2CCC[C@H]2C(N)=O)sc1-c1ccnc(C(C)(C)C(F)(F)F)c1 [Alpelisib] (partner 2 µM)
How it was run: as §1

Cell Line	relative viability (Seliciclib + Pemetrexed; first compound 0.08 µM)	relative viability (Seliciclib + Pemetrexed; first compound 0.253 µM)	relative viability (Seliciclib + Pemetrexed; first compound 0.8 µM)	relative viability (Seliciclib + Pemetrexed; first compound 2.53 µM)	relative viability (Seliciclib + Pemetrexed; first compound 8 µM)	relative viability (Seliciclib + Bortezomib; first compound 0.08 µM)	relative viability (Seliciclib + Bortezomib; first compound 0.253 µM)	relative viability (Seliciclib + Bortezomib; first compound 0.8 µM)	relative viability (Seliciclib + Bortezomib; first compound 2.53 µM)	relative viability (Seliciclib + Bortezomib; first compound 8 µM)	relative viability (Seliciclib + Olaparib; first compound 0.08 µM)	relative viability (Seliciclib + Olaparib; first compound 0.253 µM)	relative viability (Seliciclib + Olaparib; first compound 0.8 µM)	relative viability (Seliciclib + Olaparib; first compound 2.53 µM)	relative viability (Seliciclib + Olaparib; first compound 8 µM)	relative viability (Seliciclib + Alpelisib; first compound 0.08 µM)	relative viability (Seliciclib + Alpelisib; first compound 0.253 µM)	relative viability (Seliciclib + Alpelisib; first compound 0.8 µM)	relative viability (Seliciclib + Alpelisib; first compound 2.53 µM)	relative viability (Seliciclib + Alpelisib; first compound 8 µM)
LC-2-ad	0.264	0.25	0.285	0.279	0.248	1.02	0.514	0.986	0.958	0.816	0.64	0.759	0.681	0.794	0.638	0.852	0.852	0.4	0.899	0.635
LCLC-97TM1	0.206	0.148	0.192	0.135	0.135	0.816	0.767	0.646	0.163	0.195	0.453	0.47	0.322	0.381	0.265	0.243	0.308	0.382	–	0.23
LCLC-103H	0.377	0.439	0.514	0.456	0.494	0.94	1.03	0.92	0.939	1.01	0.671	0.81	0.748	0.774	0.704	0.992	0.957	0.869	1.05	0.906
LOU-NH91	–	0.394	0.367	0.44	0.393	0.5	0.519	0.518	0.408	0.399	–	0.93	0.891	0.925	0.782	0.687	0.689	0.661	0.653	0.515
LU99A	0.172	0.211	0.204	0.197	0.188	1.16	1.05	1.01	0.94	0.803	0.252	0.264	0.284	0.279	0.278	0.491	0.518	0.452	0.359	0.416
LXF-289	0.883	1.04	0.81	0.932	0.842	0.981	1.11	0.904	0.971	0.838	1.06	1.12	1.03	1.04	0.772	1.01	1.09	1.02	1.02	0.891
NCI-H23	0.715	0.72	0.619	0.337	0.489	0.84	0.776	1.1	0.496	0.895	0.346	0.31	0.377	0.269	0.262	0.612	0.447	0.603	0.504	0.562
NCI-H322M	0.615	0.716	0.564	0.636	0.619	1.21	1.4	1.18	1.23	1.09	0.722	0.969	0.561	0.758	0.749	0.87	0.876	0.692	0.822	0.73
NCI-H441	0.232	0.246	0.228	0.249	0.276	0.662	0.429	0.314	0.406	0.531	0.525	0.451	0.562	0.466	0.448	0.631	0.584	0.776	0.754	0.51
NCI-H460	0.0625	0.0553	0.0625	0.0593	0.0753	1.14	1.26	1.09	1.48	0.912	0.496	0.517	0.472	0.458	0.359	0.426	0.485	0.381	0.538	0.385
NCI-H520	0.535	0.627	0.657	0.654	0.619	0.521	0.507	0.581	0.679	0.429	0.327	0.396	0.318	0.346	0.388	0.897	0.682	0.831	1.02	0.931
NCI-H596	0.484	–	0.534	0.557	0.51	1.1	0.892	0.96	1.19	0.914	0.724	–	0.695	0.781	0.764	0.522	0.428	0.498	0.506	0.468
NCI-H647	0.2	0.151	0.174	0.179	0.196	0.789	0.849	0.941	1.05	0.891	0.526	0.433	0.512	0.649	0.313	0.952	1.1	0.978	1.15	0.618
NCI-H650	1.06	0.905	1.07	0.73	0.825	0.764	0.813	1.15	–	0.682	0.354	0.368	0.417	0.305	0.37	1.05	1.02	1.35	–	0.872
NCI-H661	0.839	1.03	0.921	0.82	0.806	0.778	0.871	0.675	0.79	0.58	0.674	0.768	0.695	0.724	0.674	0.736	0.781	0.653	0.437	0.5
NCI-H838	0.246	0.28	0.242	0.263	0.239	0.82	0.879	0.762	0.727	0.487	0.729	0.765	0.762	0.773	0.635	0.971	0.853	0.884	1.14	0.94
NCI-H1355	0.945	0.922	1.02	1.02	0.962	1.16	1.1	1.23	1.03	1.11	0.715	0.697	0.727	0.779	0.635	0.784	0.754	0.822	0.919	0.831
NCI-H1437	0.32	0.358	0.333	0.315	0.306	0.436	0.524	0.47	0.422	0.39	0.641	0.665	0.595	0.607	0.431	0.919	0.855	1.02	1.02	0.935
NCI-H1651	0.518	0.591	0.61	0.388	0.561	1	0.925	0.897	0.836	0.947	0.195	0.182	0.201	0.188	0.169	0.93	0.839	0.833	0.81	0.804
NCI-H1666	0.918	0.959	0.824	0.821	0.815	0.799	0.739	0.809	0.66	0.568	0.737	0.82	0.725	0.752	0.604	1.04	0.985	0.846	0.923	0.516
NCI-H1734	0.417	0.35	0.432	0.448	0.416	0.873	0.833	0.882	1.08	0.824	0.58	0.513	0.595	0.536	0.521	0.659	0.651	0.622	0.683	0.674
NCI-H1755	0.385	0.386	0.431	0.419	0.467	0.928	0.961	0.896	0.973	0.913	0.882	0.914	0.873	0.885	0.846	0.924	0.946	0.908	0.991	0.892
NCI-H1792	0.795	0.694	0.82	–	0.868	1.03	0.96	0.898	0.904	0.884	0.338	0.341	0.399	–	0.322	0.765	0.725	0.719	0.682	0.633
NCI-H1915	0.483	0.483	0.492	0.604	0.514	0.961	1.05	0.951	0.987	0.743	0.27	0.287	0.273	0.227	0.196	1.05	1.1	1.04	1.04	0.875
NCI-H1975	0.274	0.328	0.281	0.331	0.267	0.372	0.348	0.345	0.322	0.218	0.774	0.605	0.768	0.865	0.523	0.653	0.526	0.602	0.621	0.445
NCI-H1993	0.601	0.597	0.608	0.507	0.456	1.12	0.878	0.936	0.784	0.924	0.892	0.935	1.05	0.976	1.01	0.728	0.708	0.716	0.688	0.669
NCI-H2009	1.08	1.17	1.03	0.981	1.02	1.05	1.21	0.908	0.911	0.941	0.734	0.576	0.724	0.64	0.706	1.14	1.31	1.15	1.14	1.23
